{"source": "the NIST ThermoML archive (doi:10.1016/j.jct.2018.12.012)", "key": {"[1]": {"details": "100 kPa, Liquid; for speed of sound: Frequency=3 MHz, Single path-length method; for mass density: Vibrating tube method"}, "[2]": {"experiment": "xn = mol fraction of the nth substance listed", "details": "100 kPa, Liquid, x2 = 0; for speed of sound: Frequency=3 MHz, Single path-length method; for mass density: Vibrating tube method"}}, "note": "± gives the expanded uncertainty stated by the source.", "data": [{"smiles": "CCCCNCCCC", "note": "[dibutylamine]", "values": [{"measurement": "speed of sound", "setting": "[1]; 293.15 K", "result": "1260.1 ± 6.3", "unit": "m/s"}, {"measurement": "mass density", "setting": "[1]; 293.15 K", "result": "759.579 ± 1.4", "unit": "kg/m3"}, {"measurement": "speed of sound", "setting": "[1]; 298.15 K", "result": "1240.1 ± 6.3", "unit": "m/s"}, {"measurement": "mass density", "setting": "[1]; 298.15 K", "result": "755.48 ± 1.4", "unit": "kg/m3"}, {"measurement": "speed of sound", "setting": "[1]; 303.15 K", "result": "1220.3 ± 6.3", "unit": "m/s"}, {"measurement": "mass density", "setting": "[1]; 303.15 K", "result": "751.374 ± 1.4", "unit": "kg/m3"}, {"measurement": "speed of sound", "setting": "[1]; 308.15 K", "result": "1200.6 ± 6.3", "unit": "m/s"}, {"measurement": "mass density", "setting": "[1]; 308.15 K", "result": "747.268 ± 1.4", "unit": "kg/m3"}]}, {"smiles": "CCC(C)O", "note": "(centres undefined) [butan-2-ol] + CC(C)NC(C)C", "values": [{"measurement": "speed of sound", "setting": "[2]; 293.15 K", "result": "1229.9 ± 6.2", "unit": "m/s"}, {"measurement": "mass density", "setting": "[2]; 293.15 K", "result": "806.952 ± 1.4", "unit": "kg/m3"}, {"measurement": "speed of sound", "setting": "[2]; 298.15 K", "result": "1212.1 ± 6.2", "unit": "m/s"}, {"measurement": "mass density", "setting": "[2]; 298.15 K", "result": "802.847 ± 1.4", "unit": "kg/m3"}, {"measurement": "speed of sound", "setting": "[2]; 303.15 K", "result": "1194.1 ± 6.2", "unit": "m/s"}, {"measurement": "mass density", "setting": "[2]; 303.15 K", "result": "798.651 ± 1.4", "unit": "kg/m3"}, {"measurement": "speed of sound", "setting": "[2]; 308.15 K", "result": "1176 ± 6.2", "unit": "m/s"}, {"measurement": "mass density", "setting": "[2]; 308.15 K", "result": "794.363 ± 1.4", "unit": "kg/m3"}]}, {"smiles": "CC(C)NC(C)C", "note": "[diisopropylamine]", "values": [{"measurement": "speed of sound", "setting": "[1]; 293.15 K", "result": "1116.4 ± 6.3", "unit": "m/s"}, {"measurement": "mass density", "setting": "[1]; 293.15 K", "result": "717.305 ± 1.4", "unit": "kg/m3"}, {"measurement": "speed of sound", "setting": "[1]; 298.15 K", "result": "1093.8 ± 6.3", "unit": "m/s"}, {"measurement": "mass density", "setting": "[1]; 298.15 K", "result": "712.441 ± 1.4", "unit": "kg/m3"}, {"measurement": "speed of sound", "setting": "[1]; 303.15 K", "result": "1071.1 ± 6.3", "unit": "m/s"}, {"measurement": "mass density", "setting": "[1]; 303.15 K", "result": "707.55 ± 1.4", "unit": "kg/m3"}, {"measurement": "speed of sound", "setting": "[1]; 308.15 K", "result": "1043.5 ± 6.3", "unit": "m/s"}, {"measurement": "mass density", "setting": "[1]; 308.15 K", "result": "702.661 ± 1.4", "unit": "kg/m3"}]}, {"smiles": "CCC(C)O", "note": "(centres undefined) [butan-2-ol]", "values": [{"measurement": "speed of sound", "setting": "[1]; 293.15 K", "result": "1229.9 ± 6.2", "unit": "m/s"}, {"measurement": "mass density", "setting": "[1]; 293.15 K", "result": "806.952 ± 1.4", "unit": "kg/m3"}, {"measurement": "speed of sound", "setting": "[1]; 298.15 K", "result": "1212.1 ± 6.2", "unit": "m/s"}, {"measurement": "mass density", "setting": "[1]; 298.15 K", "result": "802.847 ± 1.4", "unit": "kg/m3"}, {"measurement": "speed of sound", "setting": "[1]; 303.15 K", "result": "1194.1 ± 6.2", "unit": "m/s"}, {"measurement": "mass density", "setting": "[1]; 303.15 K", "result": "798.651 ± 1.4", "unit": "kg/m3"}, {"measurement": "speed of sound", "setting": "[1]; 308.15 K", "result": "1176 ± 6.2", "unit": "m/s"}, {"measurement": "mass density", "setting": "[1]; 308.15 K", "result": "794.363 ± 1.4", "unit": "kg/m3"}]}, {"smiles": "CCCC(C)O", "note": "(centres undefined) [pentan-2-ol] + CC(C)NC(C)C", "values": [{"measurement": "speed of sound", "setting": "[2]; 293.15 K", "result": "1250.3 ± 6.5", "unit": "m/s"}, {"measurement": "mass density", "setting": "[2]; 293.15 K", "result": "809.399 ± 1.5", "unit": "kg/m3"}, {"measurement": "speed of sound", "setting": "[2]; 298.15 K", "result": "1232.4 ± 6.5", "unit": "m/s"}, {"measurement": "mass density", "setting": "[2]; 298.15 K", "result": "805.37 ± 1.5", "unit": "kg/m3"}, {"measurement": "speed of sound", "setting": "[2]; 303.15 K", "result": "1214.1 ± 6.5", "unit": "m/s"}, {"measurement": "mass density", "setting": "[2]; 303.15 K", "result": "801.27 ± 1.5", "unit": "kg/m3"}, {"measurement": "speed of sound", "setting": "[2]; 308.15 K", "result": "1195.7 ± 6.5", "unit": "m/s"}, {"measurement": "mass density", "setting": "[2]; 308.15 K", "result": "797.08 ± 1.5", "unit": "kg/m3"}]}, {"smiles": "CCCC(C)O", "note": "(centres undefined) [pentan-2-ol] + CCCCNCCCC", "values": [{"measurement": "speed of sound", "setting": "[2]; 293.15 K", "result": "1250.3 ± 6.5", "unit": "m/s"}, {"measurement": "mass density", "setting": "[2]; 293.15 K", "result": "809.399 ± 1.5", "unit": "kg/m3"}, {"measurement": "speed of sound", "setting": "[2]; 298.15 K", "result": "1232.4 ± 6.5", "unit": "m/s"}, {"measurement": "mass density", "setting": "[2]; 298.15 K", "result": "805.37 ± 1.5", "unit": "kg/m3"}, {"measurement": "speed of sound", "setting": "[2]; 303.15 K", "result": "1214.1 ± 6.5", "unit": "m/s"}, {"measurement": "mass density", "setting": "[2]; 303.15 K", "result": "801.27 ± 1.5", "unit": "kg/m3"}, {"measurement": "speed of sound", "setting": "[2]; 308.15 K", "result": "1195.7 ± 6.5", "unit": "m/s"}, {"measurement": "mass density", "setting": "[2]; 308.15 K", "result": "797.08 ± 1.5", "unit": "kg/m3"}]}, {"smiles": "CCC(C)O", "note": "(centres undefined) [butan-2-ol] + CCCCNCCCC", "values": [{"measurement": "speed of sound", "setting": "[2]; 293.15 K", "result": "1229.9 ± 6.2", "unit": "m/s"}, {"measurement": "mass density", "setting": "[2]; 293.15 K", "result": "806.952 ± 1.4", "unit": "kg/m3"}, {"measurement": "speed of sound", "setting": "[2]; 298.15 K", "result": "1212.1 ± 6.2", "unit": "m/s"}, {"measurement": "mass density", "setting": "[2]; 298.15 K", "result": "802.847 ± 1.4", "unit": "kg/m3"}, {"measurement": "speed of sound", "setting": "[2]; 303.15 K", "result": "1194.1 ± 6.2", "unit": "m/s"}, {"measurement": "mass density", "setting": "[2]; 303.15 K", "result": "798.651 ± 1.4", "unit": "kg/m3"}, {"measurement": "speed of sound", "setting": "[2]; 308.15 K", "result": "1176 ± 6.2", "unit": "m/s"}, {"measurement": "mass density", "setting": "[2]; 308.15 K", "result": "794.363 ± 1.4", "unit": "kg/m3"}]}, {"smiles": "CCCC(C)O", "note": "(centres undefined) [pentan-2-ol]", "values": [{"measurement": "speed of sound", "setting": "[1]; 293.15 K", "result": "1250.3 ± 6.5", "unit": "m/s"}, {"measurement": "mass density", "setting": "[1]; 293.15 K", "result": "809.399 ± 1.5", "unit": "kg/m3"}, {"measurement": "speed of sound", "setting": "[1]; 298.15 K", "result": "1232.4 ± 6.5", "unit": "m/s"}, {"measurement": "mass density", "setting": "[1]; 298.15 K", "result": "805.37 ± 1.5", "unit": "kg/m3"}, {"measurement": "speed of sound", "setting": "[1]; 303.15 K", "result": "1214.1 ± 6.5", "unit": "m/s"}, {"measurement": "mass density", "setting": "[1]; 303.15 K", "result": "801.27 ± 1.5", "unit": "kg/m3"}, {"measurement": "speed of sound", "setting": "[1]; 308.15 K", "result": "1195.7 ± 6.5", "unit": "m/s"}, {"measurement": "mass density", "setting": "[1]; 308.15 K", "result": "797.08 ± 1.5", "unit": "kg/m3"}]}]}
